In patent publication US20240391978A1, “APOLIPOPROTEIN FUSION PROTEINS FOR CELL-SPECIFIC IMMUNE REGULATION” (BIO-TRIP B.V., priority 2021, published 2024):

Columns and labels:
Macrophages = test: Seahorse metabolic analyses of IL4-trained cells; assay type: cell-based, human; details: IL4 training on day 0, measured on day 6
Method: Seahorse metabolic analyses: Macrophages were harvested as described above. The cells were resuspended in RPMI+++ and seeded into overnight-calibrated cartridges at 10^5 cells per well. After adhering for 1 hour, the medium was changed to assay medium (Agilent; see below) and the cells were incubated for 1 hour at 37° C. in ambient C02 levels. Oxygen consumption rates (OCR) and extracellular acidification rates (ECAR) were measured as proxies for glycolytic and […] metabolism, using a Seahorse XF Glycolysis Stress Test kit or a Seahorse XF Cell Mito Stress Test kit (both Agilent; measurements performed according to manufacturer's instructions).

primary human monocytes = test: In vitro model of trained immunity in primary human monocytes; assay type: cell-based
Source text: In vitro model of trained immunity in primary human monocytes: To induce trained immunity in primary human monocytes, a previously optimized and published method was used (Dominguez-Andres, J. et al. In vitro induction of trained immunity in adherent human monocytes. STAR Protoc 2, 100365, doi:10.1016/j.xpro.2021.100365 (2021); van Lier, D., Geven, C., Leijte, G. P. & Pickkers, P. Experimental human endotoxemia as a model of systemic inflammation. Biochimie 159, 99-106, doi:10.1016/j.biochi.2018.06.014 (2019)). Briefly: monocytes were adhered to a flat-bottom cell culture plate for 1 hour and washed with warm PBS to remove any non-adherent cells and cell debris. Then, they were stimulated (“trained”) for 24 hours with one of the stimuli detailed in Table 1, or medium only (“untrained” control).
For pharmacological inhibition experiments, the monocytes were pre-incubated for 1 hour with one of the inhibitors described in Table 2 before addition of the training stimulus.
Following the initial 24-hour stimulation, the cells were washed with warm PBS and warm cell culture medium was added. The monocytes were then allowed to rest and differentiate into macrophages for 5 days. On day 6, the induction of trained immunity was assessed. To this end, the cells were typically re-stimulated with LPS for an additional 24 hours to elicit cytokine production. The supernatants were collected and stored at −20° C. until further analysis, e.g. with ELISA for IL6 and TNF.
Cytokine and lactate measurements: TNF, IL6, and IL1Ra were measured in cell culture supernatants using duoset ELISA kits (R&D systems), according to the manufacturer's instructions. For lactate measurements, a fluorometric assay was used. 30 μl sample, medium control, or known standard was added to a black 96-well plate. Then, 30 μl reaction mix (PBS pH 7.4, horse radish peroxidase (0.2 U/ml), lactate oxidase (2 U/ml), Amplex red (100 μM; Fisher scientific)) was added and the reaction was incubated for 20 minutes in the dark at RT. Immediately thereafter, fluorescence was measured at 530/25 nm and 590/35 nm. Gen5 software (v3.03, BioTek) was used in conjunction with Microsoft Excel to calculate cytokine and lactate concentrations in the original samples.

TNF = test: ChIP-qPCR of H3K9me3 at TNF; assay type: cell-based, human; details: IL4-induced trained immunity
Method: Chromatin immunoprecipitation: Macrophages were harvested as described above and resuspended in RPMI+++. The cells were fixed for 10 minutes in 1% methanol-free formaldehyde. The reaction was then quenched for 3 minutes by adding 125 mM glycine. The fixed cells were washed three times with ice-cold PBS and lysed at approximately 15*10^6 cells/ml in lysis buffer (20 mM HEPES pH 7.6, 1% SDS, 1× protease inhibitor cocktail (PIC; Roche)), sonicated (Bioruptor Pico, Diagenode), and centrifuged (10 minutes, 13000 rpm, RT).
Aliquots of chromatin were de-crosslinked in 0.5×TBE buffer (supplemented with 0.5 mg/ml proteinase K (Qiagen)) for 1 hour at 65° C. and run on a 1% agarose gel to confirm target fragment size of 200-800 bp.
The remaining chromatin was divided into ChIP and input samples. ChIP samples were diluted 10× in dilution buffer (16.7 mM Tris pH 8.0, 1.0% Triton, 1.2 mM EDTA, 167 mM NaCl, 1×PIC in MilliQ) and 1 μg of ChIP-grade antibody (Diagenode) was added. The samples were rotated overnight at 4° C.
Magnetic protein A/G beads (Dynabeads) were washed 2 times in dilution buffer supplemented with 0.15% SDS and 0.1% BSA. The washed beads were added to the ChIP samples and rotated at 4° C. for 1 hour. […]

IL4: recombinant human interleukin 4
FCCP-triggered maximum respiration rate (Macrophages): significantly augmented
basal glycolysis (Macrophages): trend towards higher basal glycolysis
baseline respiration rate (Macrophages): significantly augmented
oligomycin-triggered maximum glycolytic capacity (Macrophages): significant increase
induction of trained immunity (TNF and IL6 after LPS re-stimulation on day 6) (primary human monocytes; 24 hours training, 5-day rest, LPS 24 hours): induced a trained immunity phenotype on day 6
lactate at baseline of trained cells (primary human monocytes; IL4-trained cells, day 6, data not shown): produced more lactate at baseline
effect on β-glucan-induced trained immunity (primary human monocytes; IL4 added in the first 24 hours with β-glucan): did not inhibit the training effect
H3K9me3 at TNF (AUC analysis of primer pairs) (TNF): a decrease of H3K9me3
